Values quoted from earlier work as cited in patent US20120289567A1, “COMBINATIONS OF DARIFENACIN AND SALIVARY STIMULANTS FOR THE TREATMENT OF OVERACTIVE BLADDER” (THERAVIDA, INC., priority 2011, published 2012).

Settings: 5 mg of pilocarpine

SMILES: CC[C@@H]1C(=O)OC[C@@H]1Cc1cncn1C [pilocarpine]
- time of maximum saliva output after administration: about 30 minutes
